Patent US7875270B2, “Treatment solution and method for preventing posterior capsular opacification by selectively inducing detachment and/or death of lens epithelial cells” (Abbott Medical Optics Inc., priority 2002, dated 2011)

Legend:
[1] = tested on: in vivo rabbit eyes; test: In vivo prevention of PCO after cataract operation in rabbit eyes; details: bumetanide and hyperosmotic NaCl
Protocol: The experimental group includes sixteen rabbit eyes and the control group includes four rabbit eyes. A sham cataract operation is performed on the control animals. The therapy is introduced to the others.
The pupil of each rabbit eye is preoperatively dilated with topical G Phenylephrine 10% (Alcon Labs., Inc., China) and G Cyclopentolate 1% (Bausch & Lomb Pharm., Inc., USA) three times in one hour. The rabbits are anesthetized with ketamine hydrochloride (5 mg kg-1) and xylazine hydrochloride (2 mg kg-1) and placed on an operating table. A topical anesthetic (Dieaine hydrochloride 1%) is used every five minutes on two occasions. A wire lid speculum is placed to hold the eyelids open.
A 3.2 mm scleral tunnel incision into the eye is formed at the temporal limbus. The anterior chamber is maintained with viscoelastic substances and a 4-5 mm diameter continuous curvilinear capsularhexis (CCC) is made on the anterior surface of the lens to open its bag. The treatment solution is first introduced in the LECs by hydrodissection. This ensures that the treatment fluid immediately reaches under the entire anterior capsule/LECs. This process allows for (i) separation of the lens cortex from the capsule and lens epithelium, making removal of the lens cortex easier at a later stage of the operation and (ii) the LECs to be exposed to the treatment for enough time (more than five minutes in total time).
The crystalline lens is then removed using phacoemulsification (Universal II, Alcon Labs., Inc., China). The remaining cortex is aspirated thoroughly and removed as completely as possible to expose the LECs. The lens capsular bag is then partially filed with viscoelastic material in order to maintain its shape. The viscoelastic material should not cover the LECs when the treatment solution is applied.
The treatment is spread over the inner surface of the anterior capsular bag (where the LECs attach). The anterior capsular is continuously filled by using a syringe with a bent needle. Care is taken not to over flow the bag. After the treatment solution covered the capsule bag, it is left for five minutes and then removed using a syringe.
In a few cases, IOLs are inserted. […] At the same time, the incision is enlarged to 6.0 mm and a posterior ocular lens (IOLs) (poly-methyl methacrylate, PMMA) with a 6.5 mm optic is prepared and placed into the capsular bag.
The wound is closed with or without suture.
At the completion of the surgical procedure, each rabbit eye receives subconjunctival dexamethasone (0.25 ml) and gentamicin (0.25 ml). Postoperatively, atropine sulphate 1% ophthalmic solution and neomycin sulphate-polymyxin sulphate-dexamethasone ophthalmic ointment are administered twice daily for three weeks.
The animals are evaluated for three weeks and ten weeks. […] All rabbits are evaluated by slitlamp and scored for ocular responses at 1 day and at 1, 2 and 3 weeks. (See FIG. 17, Table 1.) Three and ten weeks after surgery, the animals are anesthetized using a 2 ml intramuscular injection of 11:1 mixture of ketamine hydrochloride and xylazine 20 mg/ml and then killed with a 2 ml intravenous injection of sodium pentobarbital.
The eye globes are enucleated (some of them fixed in neutral buffered formalin 10% solution for 24 hours) and are bisected coronally just anterior to the equator. Gross examination is performed to assess. PCO development. Photographs are taken from behind (Miyake-Apple posterior photographic technique) by using a digital camera fitted to an operating microscope (Leica/Wild MZ-8, Vashaw Scientific, Inc.).
The extent and severity of PCO is scored (see FIG. 17, Table 1) according to methods reported in the literature. The lens capsules are then fixed and evaluated under a microscope (Olumpus, Optical Co. Ltd.) and photographed with a digital camera.

[2] = tested on: human LECs-CCCs freshly removed from cataract operation; test: In situ treatment of LECs attached to capsulorhexis lens capsule (LECs-CCC); assay type: cell-based
Protocol: The in situ effects of a treatment solution comprising dihydrochlorothiazide (DHCT) (a cotransport interference agent from the group of the thiazide and related diuretics) and hyperosmotic NaCl on human LECs is examined. The treatment is tested on LECs that are still attached to a continuous curvilinear capsulorhexis lens capsule (LECs-CCC) which are freshly removed from a human cataract operation.
The LECs-CCCs are obtained from a cataract operation and immediately put in freshly prepared Eagle's Minimum Essential Medium (MEM) supplemented with 2 mM glutamine, 25 mmol/L Hepes (pH 7.4) without foetal cow serum (FCS) and is transferred to the laboratory for evaluation. Viable LECs are identified by staining the LECs-CCCs for five minutes with 0.2% Trypan Blue. The sheets containing more than 70% viable LECs are used to assess the efficacy of the treatment. […]
In the first step, a hyperosmotic solution of NaCl is prepared by making a stock solution of 2 M NaCl by adding 58.44 g NaCl (supplied by Sigma Chemical Co., U.S.) to 500 ml dH2O. The desired concentration of osmotic NaCl is prepared by diluting the 2M stock solution with dH2O. For example, to make a hyperosmotic solution of 170 mM NaCl, the 2M NaCl stock solution was diluted with dH2O at a ratio of […]. To make a hyperosmotic solution of 200 mM NaCl, the 2M NaCl stock solution is diluted with dH2O at a ratio of 1 to 9. Final osmolarities (mOsm/kg/H2O) are determined by a freezing point depression method using cryoscopic osmometry.
In the second step, DHCT stock solution is made by adding 25 mg DHCT to 1 ml dH2O. […]
The treatment is applied by exposing the LECs-CCCs for five minutes in a small petri dish containing the treatment solution. The treatment solution is removed after five minutes exposure by a syringe and then the fresh PBS is added in the petri dish to wash away the treatment solution. The LECs-CCCs are washed three times. The changes of the LECS are monitored under a microscope. Microscope photographs are taken at 0, 2 and 5 minutes and after wash.

SMILES: CCCCNc1cc(C(=O)O)cc(S(N)(=O)=O)c1Oc1ccccc1 [bumetanide]
- Soemmering's ring [1]: Some degree of Soemmering's ring forms
- cell proliferation on the lens anterior capsule ([1]; three weeks): not significant cell proliferation
- development of CPCO and PPCO ([1]; three weeks follow up): no CPCO and PPCO develop
- LEC changes after exposure ([2]; 308 μm bumetanide and hyperosmotic 170 or 200 mM NaCl): do not detach, but arrest and die while shrunken
- LEC death by trypan blue exclusion ([2]; 308 μm bumetanide and hyperosmotic NaCl, after washing): cells died after treatment
